Reference: article PMC5638327, “Comparison of bioavailability and antiplatelet action of ticagrelor in patients with ST-elevation myocardial infarction and non-ST-elevation myocardial infarction: A prospective, observational, single-centre study” (PLoS ONE, 2017)

How the values were obtained:
[1] = set-up: method as in PMID 20551239; conditions: blood plasma, after ticagrelor; cited from earlier work
[2] = Pharmacokinetic assessment: plasma concentrations by liquid chromatography tandem mass spectrometry after ticagrelor loading dose; format: in vivo, human (patients with myocardial infarction); conditions: for AUC(0–6) / AUC(0–12): oral 180 mg ticagrelor LD, plasma, median [interquartile range]
Procedure: Consecutive STEMI and NSTEMI patients admitted to the study site (Cardiology Department, Dr. A. Jurasz University Hospital, Bydgoszcz, Poland) were screened for eligibility. After admission to the study centre, confirmation of the initial diagnosis of STEMI or NSTEMI, and provision of a written informed consent to participate in the trial, all study participants received an oral 300 mg LD of plain aspirin (Polpharma SA, Starogard Gdański, Poland) and 180 mg LD ticagrelor in integral tablets with 250 mL tap water. Subsequently, within 15 minutes of ticagrelor LD, all patients underwent coronary angiography followed by PCI as required. During the periprocedural period, all study participants received unfractionated heparin in body weight adjusted dose according to the European Society of Cardiology (ESC) recommendations. Plasma concentrations of ticagrelor and its active metabolite, as well as their antiplatelet effect, were evaluated according to the sampling schedule employed at our centre in previous PK/PD study (pre-treatment, 0.5 h, 1 h, 2 h, 3 h, 4 h, 6 h and 12 h post ticagrelor LD).
Blood samples for PK/PD evaluation were obtained from an 18-gauge cannula inserted into one of the forearm veins. The first 5 mL blood was discarded to avoid spontaneous platelet activation. In each patient specimens were collected at the eight pre-defined time. Detailed description of blood sample processing has been published in the study protocol (S1 File).
Ticagrelor and AR-C124910XX plasma concentrations were analyzed with liquid chromatography coupled with tandem mass spectrometry, using a validated method. Lower limits of quantification were 4.69 ng/mL for both ticagrelor and AR-C124910XX.
Statistical calculations were performed using the Statistica 12.5 package (StatSoft, Tulsa, OK, USA). Pharmacokinetic calculations and plots were made using the Matlab R2014 software (Mathworks, Natick, MA, USA); trapezoidal rule was applied to calculate AUC. Data for pharmacokinetic features of ticagrelor and AR-C124910XX, pharmacodynamic outcome variables, creatinine, glomerular filtration rate and left ventricle ejection fraction were presented as medians and interquartile ranges. Data for heart rate, systolic and diastolic blood pressure, age and body mass index were presented as means with standard deviations. […] Continuous variables were compared between both study groups with the Student’s t-test and Mann-Whitney U test, depending on the presence or absence of the normal distribution (as assessed by the Shapiro-Wilk test). Comparisons between categorical variables were performed by the chi-square test, with Yates's correction if necessary, or using Fisher's exact test. […]
Blood samples for pharmacokinetic and phar- infarction; PCI, percutaneous coronary intervention; PD, macodynamic assessment will be drawn at eight prede- pharmacodynamics; PK, pharmacokinetics; STEMI, ﬁned time points according to the blood sampling ST-elevation myocardial infarction. schedule already used at our site in a previous study
( pretreatment baseline, 30 min, 1, 2, 3, 4, 6 andsamples will be stored at temperature below −60°C until 12 hours post-ticagrelor LD— as shown in ﬁgure 1). 31 analysed.
All enrolled patients with ﬁnally unconﬁrmed initial Venous blood for the assessment of pharmacodynam-diagnosis of AMI will be excluded from the primar y ana- ics with the vasodilator-stimulated phosphoprotein lysis. Patients qualiﬁed for urgent coronar y arter y bypass (VASP) assay and multiple electrode aggregometr y surgery within the blood sampling period also will not (MEA) will be collected into trisodium citrate and be included in the analysis. All study participants not hirudin vacuum test tubes, respectively. The ﬁrst 3–5mL receiving PCI will be reported. of blood will be discarded to avoid spontaneous platelet Study population activation. The pharmacodynamic analysis will be per- […]

platelet reactivity [3] = tested on: platelet reactivity; set-up: method as in PMID 27885888; conditions: STEMI patients, first hour after ticagrelor LD, parenteral; cited from earlier work
platelet reactivity [4] = tested on: platelet reactivity; set-up: method as in PMID 27366874; conditions: STEMI patients on prasugrel with concomitant morphine, intravenous; cited from earlier work

For `CCCSc1nc(N[C@@H]2C[C@H]2c2ccc(F)c(F)c2)c2nnn([C@@H]3C[C@H](O)[C@@H](O)[C@H]3O)c2n1` [AR-C124910XX], which “plasma concentration relative to the main compound” value [1] is on record?
The value was 30–40%.

And the “AUC(0–6)” value ([2]; NSTEMI patients (n = 24))?
Its value is 712 [346–1616] ng*h/mL.

And the “AUC(0–12)” value ([2]; NSTEMI patients)?
The value was 1523 [1005–2867] ng*h/mL.

What about the “AUC(0–6)” value ([2]; STEMI patients (n = 49)) of the same molecule?
Its value is 473 [0–924] ng*h/mL.

And the “AUC(0–12)” value ([2]; STEMI patients)?
Its value is 1383 [766–2182] ng*h/mL.

What about the “lower AUC(0–6) in STEMI than in NSTEMI patients” value ([2]; first 6 h after 180 mg ticagrelor LD) of the same molecule?
Its value is 34%.

For `CSCCNc1nc(SCCC(F)(F)F)nc2c1ncn2[C@@H]1O[C@H](COP(=O)(O)OP(=O)(O)C(Cl)(Cl)P(=O)(O)O)[C@@H](O)[C@H]1O` [cangrelor], which “effect on platelet reactivity and HPR” value (platelet reactivity [3]) is on record?
The value was “markedly reduced platelet reactivity and basically eliminated HPR phenomenon”.

B1: abciximab (antibody, chains of the INN, looked up, V domains shown)
VH: EVQLQQSGTVLARPGASVKMSCEASGYTFTNYWMHWVKQRPGQGLEWIGAIYPGNSDTSYIQKFKGKAKLTAVTSTTSVYMELSSLTNEDSAVYYCTLYDGYYVFAYWGQGTLVTVSA
VL: EIVLTQSPVTLSVTPGDSVSLSCRASRDISNNLHWFQQTSHESPRLLIKYASQSMSGIPSRFSGSGSGTDFTLSINSVETEDFGMYFCQQTNSWPYTFGGGTKLEIK
modifications: Fab
With B1 as the molecule, how does the platelet inhibition (platelet reactivity [4]) read?
Its platelet inhibition is “immediate and efficient platelet inhibition”.
